From patent US20090005424A9, “Composition and Method for Treating Fibrotic Diseases” (priority 2005, published 2009)
Read-outs that look alike come from different tables or passages of the source. Marks after values point to notes of the source that are not given here.

Key:
Human Stellate Cells = assay: MTT proliferation assay, human stellate cells; type: cell-based
Description: (§1) Cell proliferation was measured by MTT assay. DMEM with 10% fetal serum was used as cell culture medium. The cells were prepared in suspension (1×10^5/ml), and 100 μL of the suspension was transferred to each well of a 96 wells plate. Once the cells were attached to the plastic, the culture was changed to serum free medium and incubated for another 24 hours. Then, the serum free medium was aspirated, and various concentrations of 1-(3′-fluorophenyl)-5-methyl-2(1H)-pyridone (AKF-PD) or PIRFENIDONE (PFD) in 10% serum medium were added into each well with 5 replicates for each concentration. The cells were stained with MTT (10 μL per well) at 12, 24, or 48 hours post drug treatment. After 4 hrs of incubation, the medium with MTT was aspirated from each well. One hundred μL MTT solvent was added to each well for 15 min, and the dissolved MTT was then measured with a plate reader at 570 nm.

[1] = test system: Rat Pulmonary Fibroblasts; assay: MTT proliferation assay, rat pulmonary fibroblasts; type: cell-based; conditions: for order of inhibitory effect: rat pulmonary fibroblasts
Description: as §1, with “(AKF-PD) or 1-(3′-bromophenyl)-5-Methyl-2(1H)-Pyridone or PIRFENIDONE (PFD)” for “(AKF-PD) or PIRFENIDONE (PFD)”, “well) at 24, or” for “well) at 12, 24, or”, “MTT was measured with” for “MTT was then measured with”

[2] = test system: Sprague-Dawley rats, Bleomycin-induced pulmonary fibrosis; assay: Bleomycin-induced rat pulmonary fibrosis, severity of fibrotic lesions; type: in vivo; conditions: AKF-PD 500 mg/kg daily by gavage; 27 days post surgery; total of 8 rats
Description: Bleomycin-induced rat pulmonary fibrosis is selected for testing 5-methyl-1-(3′-fluorophenyl)-2(1H)-pyridone (AKF-PD). Male Sprague-Dawley rats (6-8 weeks old, 180 g˜220 g) were cared under regular condition. The animals were randomly divided into 3 groups: sham surgical group, model disease group, and disease/AKF-PD group. Six mg/kg/4 ml of Bleomycin was slowly infused into the trachea of rats in the model disease and disease/AKF-PD groups. Same amount of normal saline was infused into the trachea of rats in the sham surgical group.
Five hundred mg/kg AKF-PD was directly administrated by gavage to rats in the disease/AKF-PD group daily from 2 days prior to operation through 27 days after operation. Normal saline was used for all animals in both disease and sham surgical groups. The animals were sacrificed at 27 days post surgery and the lung tissues were removed for pathological sample preparation. The HE-stained lung tissues from each rat were examined under microscope to determine the frequency and severity of fibrotic lesion. Evaluation of lung tissue fibrosis was carried out according to the method of Szapiel et al., Bleomycin-induced interstitial pulmonary disease in the nude, athymic mouse. Am. Rev. Respir. Dis. 120:893-9(1979).

[3] = test system: ICR mice injected with bleomycin; assay: Bleomycin-induced mouse pulmonary fibrosis, histological score of lung tissue; type: in vivo; conditions: AKF-PD and PFD 500 mg/kg, captopril 12.5 mg/kg by gavage day 1 to 28, Szapiel's method
Description: Under regular care condition, 7-10 weeks old, male, institute of cancer research (ICR) mice, weight 28-39 g, were randomly grouped as normal control, disease, disease/AKF-PD, disease/PFD and disease Captopril group.
Control group was injected with normal saline once day from day 2 to 15 days. Disease, disease/AKF-PD, disease/PFD and disease/captopril groups were injected with bleomycin once day from day 2 to 15. Control and disease groups were given 0.5% CMC by gavage once a day from day 1 to day 28. 500 mg/kg of AKF-PD CMC suspension and PD CMC suspension and 12.5 mg/kg captopril in saline were administered to respective groups by gavage once day from day 1 to day 28. All animals were sacrificed on day 29 and their lungs were removed for pathological (HE staining) examination.
Histological scoring for the lung tissue was done according Szapiel's method.

[4] = test system: SD rat, Unilateral Ureteral Obstruction (UUO) model; assay: Rat UUO model of renal interstitial fibrosis, histological score (Example 8); type: in vivo; conditions: UUO rats; AKF-PD 500 mg/kg/d, Enalapril 10 mg/kg/d by gavage; 14 days post surgery; Radford's method
Description: Anti-fibrotic effect of AKF-PD was tested on a SD rat model for renal interstitial fibrosis induced by surgical ligation of single side ureter (Unilateral Ureteral Obstruction, UUO, model). Eight weeks old male SD rats (180 g˜220 g) were randomly divided into sham surgical group, disease model group, Enalapril (10 mg/kg/d) group and AKF-PD (500 mg/kg/d) group. […] The animals of the sham surgical group experienced the same surgical procedure except the ligation step. The respective drugs were administrated by gavage to rats in the groups of Enalapril and AKF-PD from one day prior to the procedure to 14 days post surgical procedure. Normal saline was administrated in a similar fashion to the rats in the groups of disease model and sham surgical. The animals were sacrificed 14 days after surgical procedure and their left kidney were removed for pathological (HE staining) examination. Histological scoring for interstitial compartment was done according to Radford's method (Radford et al., Predicting renal outcome in IgA nephropathy. J. Am. Soc. Nephrol. 8: 199-207(1997)).

Kun Ming (KM) mice = conditions: cited from earlier work

With `Cc1ccc(=O)n(-c2cccc(F)c2)c1` [AKF-PD, 1-(3′-fluorophenyl)-5-methyl-2(1H)-pyridone] the “Optical Density at 570 nm” value (Human Stellate Cells; 100 μg/ml, 12 h) was 0.202 ± 0.001, the “Optical Density at 570 nm” value (Human Stellate Cells; 100 μg/ml, 24 h) was 0.366 ± 0.002 and the “Optical Density at 570 nm” value (Human Stellate Cells; 100 μg/ml, 48 h) was 0.442 ± 0.006. The “Optical Density at 570 nm” value (Human Stellate Cells; 500 μg/ml, 12 h) was 0.202 ± 0.001, the “Optical Density at 570 nm” value (Human Stellate Cells; 500 μg/ml, 24 h) was 0.341 ± 0.003 and the “Optical Density at 570 nm” value (Human Stellate Cells; 500 μg/ml, 48 h) was 0.406 ± 0.002. The “Optical Density at 570 nm” value (Human Stellate Cells; 1000 μg/ml, 12 h) was 0.198 ± 0.001, the “Optical Density at 570 nm” value (Human Stellate Cells; 1000 μg/ml, 24 h) was 0.312 ± 0.003 and the “Optical Density at 570 nm” value (Human Stellate Cells; 1000 μg/ml, 48 h) was 0.385 ± 0.004. The “Optical Density at 570 nm” value (Human Stellate Cells; 2500 μg/ml, 12 h) was 0.195 ± 0.002, the “Optical Density at 570 nm” value (Human Stellate Cells; 2500 μg/ml, 24 h) was 0.273 ± 0.005 and the “Optical Density at 570 nm” value (Human Stellate Cells; 2500 μg/ml, 48 h) was 0.246 ± 0.001. For the same compound, the “anti-proliferative potency compared with PIRFENIDONE” value (Human Stellate Cells; human stellate cells) was “more potent anti-proliferative agent than PIRFENIDONE”, the “suppression of proliferation of rat pulmonary fibroblasts” value [1] was “could suppress proliferation of rat pulmonary fibroblasts” and the “Optical Density at 570 nm” value ([1]; 100 μg/ml, 24 h) was 0.1467 ± 0.0138. The “Optical Density at 570 nm” value ([1]; 100 μg/ml, 48 h) was 0.1369 ± 0.0115, the “Optical Density at 570 nm” value ([1]; 500 μg/ml, 24 h) was 0.1258 ± 0.0119 and the “Optical Density at 570 nm” value ([1]; 500 μg/ml, 48 h) was 0.1214 ± 0.0234. The “Optical Density at 570 nm” value ([1]; 1000 μg/ml, 24 h) was 0.1130 ± 0.0163, the “Optical Density at 570 nm” value ([1]; 1000 μg/ml, 48 h) was 0.1119 ± 0.0285 and the “order of inhibitory effect” value [1] was “AKF-PD>AKF-BR>pirfenidone”. The “Number of rats with Severity of Fibrosis: Milder” value [2] was 6, the “Number of rats with Severity of Fibrosis: Moderate” value [2] was 1 and the “Number of rats with Severity of Fibrosis: None” value [2] was 0. The “Number of rats with Severity of Fibrosis: Sever” value [2] was 1, the “Histological Score for Lung Tissue, Mean” value [3] was 2.0000 and the “Histological Score for Interstitial Compartment” value [4] was 6.43 ± 1.28.

For `Cc1ccc(=O)n(-c2ccccc2)c1` [PFD, 5-methyl-1-phenyl-2(1H)-pyridone, reference compound], the “Optical Density at 570 nm” value (Human Stellate Cells; 100 μg/ml, 12 h) was 0.206 ± 0.003, the “Optical Density at 570 nm” value (Human Stellate Cells; 100 μg/ml, 24 h) was 0.371 ± 0.001 and the “Optical Density at 570 nm” value (Human Stellate Cells; 100 μg/ml, 48 h) was 0.447 ± 0.003. For the same compound, the “Optical Density at 570 nm” value (Human Stellate Cells; 500 μg/ml, 12 h) was 0.202 ± 0.001, the “Optical Density at 570 nm” value (Human Stellate Cells; 500 μg/ml, 24 h) was 0.345 ± 0.002 and the “Optical Density at 570 nm” value (Human Stellate Cells; 500 μg/ml, 48 h) was 0.413 ± 0.001***^++. The “Optical Density at 570 nm” value (Human Stellate Cells; 1000 μg/ml, 12 h) was 0.201 ± 0.001, the “Optical Density at 570 nm” value (Human Stellate Cells; 1000 μg/ml, 24 h) was 0.330 ± 0.001***^++ and the “Optical Density at 570 nm” value (Human Stellate Cells; 1000 μg/ml, 48 h) was 0.402 ± 0.001***^++. The “Optical Density at 570 nm” value (Human Stellate Cells; 2500 μg/ml, 12 h) was 0.198 ± 0.001, the “Optical Density at 570 nm” value (Human Stellate Cells; 2500 μg/ml, 24 h) was 0.278 ± 0.001***^+ and the “Optical Density at 570 nm” value (Human Stellate Cells; 2500 μg/ml, 48 h) was 0.306 ± 0.002***^+++. The “Optical Density at 570 nm” value ([1]; 100 μg/ml, 24 h) was 0.2023 ± 0.0169, the “Optical Density at 570 nm” value ([1]; 100 μg/ml, 48 h) was 0.1864 ± 0.0530 and the “Optical Density at 570 nm” value ([1]; 500 μg/ml, 24 h) was 0.1887 ± 0.0130. For the same compound, the “Optical Density at 570 nm” value ([1]; 500 μg/ml, 48 h) was 0.1459 ± 0.0255, the “Optical Density at 570 nm” value ([1]; 1000 μg/ml, 24 h) was 0.1797 ± 0.0166 and the “Optical Density at 570 nm” value ([1]; 1000 μg/ml, 48 h) was 0.1269 ± 0.0302. For the same compound, the “order of inhibitory effect” value [1] was “AKF-PD>AKF-BR>pirfenidone”, the “Histological Score for Lung Tissue, Mean” value [3] was 2.0909 and the “LD50 reported in the literature” value (Kun Ming (KM) mice; Pharmaceutical Care and Research 5:4823(2005)) was 1112 mg/kg. For the same compound, the “LD50 reported in the literature” value (Kun Ming (KM) mice; U.S. Pat. No. 5,310,562) was 997.7 mg/kg.
